For two molecules, EC50 and ED50 results are on record in US20130253022A1 (FOX CHASE CHEMICAL DIVERSITY CENTER, INC., priority 2010, published 2013).

Experiment [1] has as its system Hippocampal Cultures. Nature of the experiment: Neuroprotection from hydrogen peroxide (oxidative stress), propidium iodide assay. Type of experiment: cell-based. The settings on record: Rattus norvegicus; 10 μM hydrogen peroxide, hippocampal cultures, 4 hour test period; read-out: NP from Hydrogen Peroxide PI EC50. The source says:
(§1) Cell cultures: All compounds are screened with dissociated hippocampal cultures derived from embryonic day 18 rats as the primary test system. With this preparation, primary neurons are used to test for toxicity as well as neuroprotection in a highly relevant experimental system to epilepsy. In brief, hippocampal tissue are obtained commercially through Brain Bits (Springfield, Ill.) and cultures prepared as previously described by Brewer (Brewer, G. J. Serum-free B27/neurobasal medium supports differentiated growth of neurons from the striatum, substantia nigra, septum, cerebral cortex, cerebellum and dentate gyms, J. Neurosci. Res. 1995, 42, 674-683). The hippocampal neurons are platted at low density (10,000 cell/well) in a 96-well format and maintained in serum-free medium consisting of Neurobasal Medium supplemented with B27 and GlutaMAX (Gibco). Pre-coated poly-L-lysine coated plates are used because of the preferential adherence and survival of hippocampal neurons on this matrix support.
(§2) Potent neuroprotection is the distinguishing characteristic that separates this program's anticonvulsants from all other commercial drugs for epilepsy. The experimental details and the rationale for the implemented assays are essential in differentiating these compounds from that of others. The central objective of all neuroprotective assays was their relevancy to excitotoxicity and oxidative stress related to epilepsy. Both the amount of glutamate and hydrogen peroxide used in the assays, as well as the time of treatment and duration of the experiment, were designed to be relevant to epilepsy. Further, all time parameters employed in these studies were empirically determined to be within the limits of reversible toxic events, yet using amounts of glutamate and hydrogen peroxide that were relevant to the disease. In regard to glutamate toxicity, a critical feature was the duration of treatment of the hippocampal neurons. The rational for using a short 5 min treatment with glutamate was based on the observation of Randall and Thayer (Randall, R. D.; Thayer, S. A. Glutamate-induced calcium transient triggers calcium overload and neurotoxicity in rat hippocampal neurons, J. Neurosci. 1992, 12, 1882-1895). […] The rationale is that this intense burst of glutamate and resulting calcium overload is relevant to seizures and therefore was important data to capture in the screening assay. The amount of glutamate (30 μM) employed in our screening was based on the basal levels of glutamate observed in microdialysis measurements of hippocampus from epileptogenic patients (Cavus et al. Decreased hippocampal volume on MRI is associated with increased extracellular glutamate in epilepsy patients, Epilepsia, 2008, 49, 1358-1366). In regard to hydrogen peroxide, the amount employed (10 μM) was detected in the hippocampus of rats after kainate-induced status epilepticus (Jarrett et. al., Mitochondrial DNA damage and impaired base excision repair during epileptogenesis, Neurobiol. Dis. 2008, 30, 130-138). To produce neural damage and death with these amounts of glutamate and hydrogen peroxide, the cultures were changed to a medium with significant depletion of antioxidant components in the defined medium supplement B-27 just prior to treatment with the compounds. This was performed to obtain a significant and reproducible toxic signal in the hippocampal neurons and because loss of antioxidant control may be a component of epileptogenesis (Waldbaum and Patel, Mitochondria, oxidative stress and temporal lobe epilepsy, Epilepsy Res. 2010 88, 23-45; Wu et al., Mitochondrial DNA mutation-elicited oxidative stress, oxidative damage, and altered gene expression in cultured cells of patients with MERRF syndrome, Mol. Neurobiol. 2010, 41, 256-266). Neuroprotection studies with hydrogen peroxide were conducted with cultures that were between day 12 and day 18. Studies of neuroprotection glutamate were conducted between day 19 and day 22. […]

Experiment [2] deals with MES-induced seizure spread. The experiment is described as follows: Maximal electroshock seizure (MES) test, rat. The class given is in vivo, rats. The note with it: po. On the procedure:
Seizure-related assays, Maximal electroshock test: The most definitive assay for anti-seizure activity is the maximal electroshock (MES) test (Swinyard, E. A. Laboratory evaluation of antiepileptic drugs: review of laboratory methods, Epilepsia, 1969, 10, 107-119). […] With both rodent assays, the duration of action is of high importance as well as the potency of the response.
Methods to measure anticonvulsant activity: All tests were conducted by the Anticonvulsant Screening Program (ASP) of the National Institute of Neurological Disease and Stroke at the National Institutes of Health.
The Maximal Electroshock Seizure (MES) or Maximal Seizure Pattern Test: The MES is a model for generalized tonic-clonic seizures (Putnam and Merritt. Experimental determination of the anticonvulsant properties of some phenyl derivatives. Science 1937, 85, 113-118). It is highly reproducible with consistent endpoints. The behavioral and electrographic seizures generated in this model are consistent with the human disorder. This model identifies those compounds which prevent seizure spread.
In the MES test, an electrical stimulus of 0.2 s in duration (50 mA in mice and 150 mA in rat at 60 Hz) is delivered via corneal electrodes primed with an electrolyte solution containing an anesthetic agent. Mice are tested at 30 minutes and 4 hours following doses of 30, 100 and 300 mg/kg of test compound. Test compounds are administered intraperitoneally to the mice. Rats are tested at time intervals between 0.25 and 4 hours following a standard oral dose of 30 mg/kg. Abolition of the hindlimb tonic extensor component indicates the test compound's ability to inhibit MES-induced seizure spread.
In general terms: In the maximal electroshock model the usual endpoint is tonic extension of the hind limbs.

Experiment [3] has as its system Hippocampal Cultures. The experiment is described as follows: Neuroprotection from glutamate excitotoxicity, CFDA (neuronal viability) assay. The class given is cell-based. The note with it: Rattus norvegicus; 30 μM glutamate 5 min, hippocampal cultures, 4 hour test period; read-out: NP from Glutamate CFDA EC50.
Description: as §1
as §2, with “compounds.” for “compounds. This was performed to obtain a significant and reproducible toxic signal in the hippocampal neurons and because loss of antioxidant control may be a component of epileptogenesis (Waldbaum and Patel, Mitochondria, oxidative stress and temporal lobe epilepsy, Epilepsy Res. 2010 88, 23-45; Wu et al., Mitochondrial DNA mutation-elicited oxidative stress, oxidative damage, and altered gene expression in cultured cells of patients with MERRF syndrome, Mol. Neurobiol. 2010, 41, 256-266). Neuroprotection studies with hydrogen peroxide were conducted with cultures that were between day 12 and day 18. Studies of neuroprotection glutamate were conducted between day 19 and day 22.”

Experiment [4] deals with Hippocampal Cultures. The experiment is described as follows: Neuroprotection from glutamate excitotoxicity, propidium iodide (cell death) assay. Type of experiment: cell-based. The settings on record: Rattus norvegicus; 30 μM glutamate 5 min, hippocampal cultures, 4 hour test period; read-out: NP from Glutamate PI EC50.
Description: as §1, §2

For orientation: EC50 means the concentration giving half of the maximal effect. The ED50 is the dose that gives a 50% effect, or the effect in half of the subjects. Read a low ED50 as greater potency. Take `NS(=O)(=O)NCC(F)(F)c1ccccc1F` [Example 1, 2,2-Difluoro-2-(2-fluorophenyl)-ethyl-1-sulfamide]: the EC50 with Hippocampal Cultures [1], in the experiment with Hippocampal Cultures [3] and in the experiment with Hippocampal Cultures [4] was 1 nM throughout. In experiment [2], this molecule had an ED50 of 30 mg/kg.

On to `NS(=O)(=O)NCC(F)(F)c1ccccc1Cl` [Example 2, 2,2-Difluoro-2-(2-chlorophenyl)-ethyl-1-sulfamide], for which the results for the 50% effective concentration (EC50) with Hippocampal Cultures [1], in the experiment on Hippocampal Cultures [3] and with Hippocampal Cultures [4] were 0.1 nM, 10 nM and 1 nM, respectively. Besides, in experiment [2], it took a dose of 30 mg/kg to reach the 50% effect level (ED50).
